Reference: patent publication US20090143392A1, “Methods of Treating Obesity and Metabolic Disorders” (ELBION GMBH, priority 2007, published 2009)

Tests used:
PDE10 from pig striatum = target: T1, PDE10 from pig striatum (Sus scrofa, UniProt A0A287B941); assay: Inhibition of PDE10 from pig striatum; type: biochemical; conditions: 0.1 μM [3H]-cAMP, 37° C., 30 minutes
T1 construct: "Striatum from male hybrid pigs (150 kg)"
Description: Phosphodiesterase isoenzyme 10 (PDE10) activity was determined in preparations of human recombinant PDE10A and PDE10 from pig striatum, respectively.
Striatum from male hybrid pigs (150 kg) were collected and frozen at −70° C.
At the day of preparation 0.5 g striatum was homogenised in 10 ml 50 mM Tris/Mg-buffer at 4° C. and centrifuged for one hour at 100000 g.
Nonspecific activity was tested without the enzyme. […] For determination of IC50 values the Hill-plot, 2-parameter-model, was used.
Phosphodiesterase isoenzyme 10 (PDE10) activity was determined in preparations of rat, pig and guinea pig striatum respectively. Striatum from male Wistar rats (180-200 g), male hybrid pigs (150 kg) and male guinea pigs (CRL (HA), 500 g) respectively were collected and frozen at −70° C.
For the enzymatic testing of PDE10 activity 0.5 g of the isolated and frozen striatum was homogenised in 10 ml 50 mM Tris/Mg-buffer at 4° C. and centrifuged for one hour at 100000 g.

MK-801-induced psychosis = assay: MK-801-induced psychosis: hyperactivity and stereotyped sniffing; type: in vivo; conditions: p.o.; female Wistar rats; MK-801 0.1 mg/kg i.p. 10 min before test; compound 30 min prior; recorded 1 h
Description: Female Wistar rats (Crl: (WI) BR, Charles River, Sulzfeld, Germany) weighing 150 to 180 g were used for the MK-801-induced psychosis. Animals were housed under standard conditions in groups of five on a 12 h light/dark cycle (light on at 0600 h) with ad libitum access to food (Pellets, ssniff M/R 15, Spezialdiät GmbH, Soest/Westfalen) and water.
MK-801 (dizocilpine, MW 337.37) was obtained by Tocris, distributed by Biotrend Chemikalien GmbH, Köln, Germany.
Hydroxyethylcellulose was solved in distilled water.
MK-801 was solved in saline so that an administration volume of 0.5 ml/100 g was reached. The suspensions and solution were placed on a magnetic stirrer before and during dosing procedures.
The behaviour induced by the NMDA antagonist MK-801 is generally accepted as a rat model of psychosis. MK-801 induces stereotyped sniffing, hyperactivity and ataxia in rats after intraperitoneal administration.
Locomotor activity of the rats was recorded by the MotiTest Apparatus (TSE, Bad Homburg, Germany). The test area consisted of a squared arena (45×45 cm) with protective plexiglass walls (20 cm of height) where rats could freely move. Horizontal movements were recorded by 32 infrared photocells arranged along the bottom of each wall of the arena. The activity [sec] was measured by the computer program “ActiMot” (TSE, Bad Homburg, Germany).
Stereotyped sniffing was scored by the experimenter every five minutes for one hour (12 intervals) according to the method described by Andine et al. (1999). The scores of the 12 intervals were summed up at the end of the recording time.
The day of experiment the female rats were placed in the laboratory and received the test compound or vehicle at the appropriate time prior to test. MK-801 0.1 mg/kg was intraperitoneally administered 10 minutes prior to test.
At the beginning of the test the rats were placed in the centre of the squared arena of the MotiTest apparatus. Behaviour of the rats was recorded for one hour. After each run animals were removed and the boxes thoroughly cleaned and dried.
Results were analysed by one way analysis of variance (ANOVA). Tukey test was used for individual comparison. P<0.05 was regarded as significant.

Compound	IC50 (PDE10 from pig striatum) [nM]	melting point [°C]	also measured
1-cyclohexyl-3,4-dimethyl-8-methoxy-imidazo[1,5-a]pyrido[3,2-e]pyrazine [Example 44a]	3		
1-hexyl-8-methoxy-3-methyl-4-methylsulfonylamino-imidazo[1,5-a]pyrido[3,2-e]pyrazine [Example 79a]	11		
1-propyl-3,4-dimethyl-imidazo[1,5-a]pyrido[3,2-e]pyrazine [Example 52a]	53		
3,4-dimethyl-1-hexyl-8-methoxy-imidazo[1,5-a]pyrido[3,2-e]pyrazine [Example 45a]	53		
3,4-dimethyl-8-(piperidin-1-yl)-methoxy-1-propyl-imidazo[1,5-a]pyrido[3,2-e]pyrazine [Example 55a]	14		dose that significantly reversed MK-801-induced hyperactivity (MK-801-induced psychosis): 30 mg/kg; dose that significantly reversed MK-801-induced stereotyped sniffing (MK-801-induced psychosis): 30 mg/kg
3,4-dimethyl-8-methoxy-1-(2-chlorophenyl)-imidazo[1,5-a]pyrido[3,2-e]pyrazine [Example 49a]	1		
3,4-dimethyl-8-methoxy-1-(3,3,3-trifluoropropyl)-imidazo[1,5-a]pyrido[3,2-e]pyrazine [Example 42a]	59		
3,4-dimethyl-8-methoxy-1-pentyl-imidazo[1,5-a]pyrido[3,2-e]pyrazine [Example 43a]	35		
3,4-dimethyl-8-methoxy-1-phenyl-imidazo[1,5-a]pyrido[3,2-e]pyrazine dihydrochloride [Example 48a]	7		
3-methyl-4-methylsulfonylamino-1-propyl-imidazo[1,5-a]pyrido[3,2-e]pyrazin-8-ol [Example 86a]	23		
4-amino-1-(4-fluoro-phenyl)-8-methoxy-3-methyl-imidazo[1,5-a]pyrido[3,2-e]pyrazine [Example 12b]	6		
4-amino-1-hexyl-8-methoxy-3-methyl-imidazo[1,5-a]pyrido[3,2-e]pyrazine [Example 7b]	48		
4-amino-8-methoxy-3-methyl-1-phenethyl-imidazo[1,5-a]pyrido[3,2-e]pyrazine [Example 9b]	38		
4-amino-8-methoxy-3-methyl-1-propyl-imidazo[1,5-a]pyrido[3,2-e]pyrazine [Example 1b]			dose that significantly reversed MK-801-induced hyperactivity (MK-801-induced psychosis): ≥ 10 mg/kg; dose that significantly reversed MK-801-induced stereotyped sniffing (MK-801-induced psychosis): ≥ 10 mg/kg
4-azido-8-methoxy-3-methyl-1-propyl-imidazo[1,5-a]pyrido[3,2-e]pyrazine [Example 31a]	171		
4-chloro-3-methyl-1-propyl-imidazo[1,5-a]pyrido[3,2-e]pyrazin-8-ol [Intermediate A25]	63		
4-ethylsulfonylamino-8-methoxy-3-methyl-1-propyl-imidazo[1,5-a]pyrido[3,2-e]pyrazine [Example 71a]	126		
4-isopropylsulfonylamino-8-methoxy-3-methyl-1-propyl-imidazo[1,5-a]pyrido[3,2-e]pyrazine [Example 75a]	78		
8-difluoromethoxy-3,4-dimethyl-1-propyl-imidazo[1,5-a]pyrido[3,2-e]pyrazine [Example 54a]	18		
8-difluoromethoxy-3-methyl-4-methylsulfonylamino-1-propyl-imidazo[1,5-a]pyrido[3,2-e]pyrazine [Example 87a]	15		
8-methoxy-3-methyl-1-phenethyl-4-methylsulfonylamino-imidazo[1,5-a]pyrido[3,2-e]pyrazine [Example 80a]	37		
8-methoxy-3-methyl-1-propyl-4-trifluoromethylsulfonylamino-imidazo[1,5-a]pyrido[3,2-e]pyrazine [Example 73a]	19		
8-methoxy-3-methyl-1-propyl-4-ureido-imidazo[1,5-a]pyrido[3,2-e]pyrazine [Example 67a]	83		
8-methoxy-3-methyl-4-(3-isopropyl-ureido)-1-propyl-imidazo[1,5-a]pyrido[3,2-e]pyrazine [Example 68a]	141		
8-methoxy-3-methyl-4-(3-methyl-ureido)-1-propyl-imidazo[1,5-a]pyrido[3,2-e]pyrazine [Example 66a]	752		
8-methoxy-3-methyl-5-oxo-1-propyl-imidazo[1,5-a]pyrido[3,2-e]pyrazine [Example 60a]	23		
8-methoxy-4-(methoxycarbonyl-methyl-amino)-3-methyl-1-propyl-imidazo[1,5-a]pyrido[3,2-e]pyrazine [Example 65a]	559		

More lines, main results first:

IC50 (PDE10 from pig striatum) [nM]	melting point [°C]	Compound	also measured
8		4-chloro-8-difluoromethoxy-3-methyl-1-propyl-imidazo[1,5-a]pyrido[3,2-e]pyrazine [Intermediate A28]	
11		4-difluoromethoxy-3-methyl-1-propyl-imidazo[1,5-a]pyrido[3,2-e]pyrazine-8-ol [Example 59a]	
1	215 to 221	CCCc1nc(C)cn1-c1ccc2nc(N)c3c(C)nc(CCC)n3c2n1 [Example 6b, 4-amino-3-methyl-1-propyll-8-(2-propyl-4-methyl-imidazol-1-yl)-imidazo[1,5-a]pyrido[3,2-e]pyrazine]	
43		CCCc1ncc2c(C)nc3ccc(OC)nc3n12 [Example 53a]	
11	73 to 75	CCc1nc(C)cn1-c1ccc2nc(C)c3c(C)nc(CC)n3c2n1 [Example 57a]	
	139 to 142	CCc1nc(C)c2n1-c1nc(OC)ccc1NC2 [Example 93a, 1-ethyl-8-methoxy-3-methyl-4,5-dihydro-imidazo[1,5-a]pyrido[3,2-e]pyrazine]	
2	211 to 213	COc1ccc2nc(Cl)c3c(C)nc(C4CCCCC4)n3c2n1 [Intermediate A4]	
71	115 to 117	CCCCCCc1nc(C)c2c(Cl)nc3ccc(OC)nc3n12 [Intermediate A5]	
56	110.5 to 113	CCCCCc1nc(C)c2c(Cl)nc3ccc(OC)nc3n12 [Intermediate A6]	
34	149 to 153	COc1ccc2nc(Cl)c3c(C)nc(CCC(F)(F)F)n3c2n1 [Intermediate A7]	
4	240 to 242	COc1ccc2nc(Cl)c3c(C)nc(-c4ccccc4)n3c2n1 [Intermediate A9]	
38	138 to 140	CCCc1nc(C)c2c(Cl)nc3cccnc3n12 [Intermediate A12]	
53	153 to 155	CCCc1ncc2c(Cl)nc3ccc(OC)nc3n12 [Intermediate A13]	
128	162 to 164	COc1ccc2nc(Cl)c3cnc(C(C)C)n3c2n1 [Intermediate A14]	
9	99 to 101	CCCc1nc(C)c2c(Cl)nc3ccc(C)nc3n12 [Intermediate A19]	
11	145 to 150	CCc1nc(C)c2c(Cl)nc3ccc(N(CC)CC)nc3n12 [Intermediate A20]	
5		CCCc1nc(C)c2c(Cl)nc3ccc(N4CCCCC4)nc3n12 [Intermediate A21]	
52	283 to 285	CCc1nc(C)c2c(Cl)nc3ccc(N4CCN(C)CC4)nc3n12 [Intermediate A22]	
3	138 to 141	CCc1nc(C)cn1-c1ccc2nc(Cl)c3c(C)nc(CC)n3c2n1 [Intermediate A23]	
2	134 to 136	CCCc1nc(C)cn1-c1ccc2nc(Cl)c3c(C)nc(CCC)n3c2n1 [Intermediate A24]	
46	> 360	CCc1nc(C)c2c(Br)nc3ccc(O)nc3n12 [Intermediate A26]	
